*1 amine or outer side, *2 acyl side, *3 side chain or, on linkers, in order; H or OH if unused. Where a SMILES comes first, the peptide text is derived from it. Side-chain parts run from the residue outwards. The star is where a group is joined. C18 diacid = O=C(O)CCCCCCCCCCCCCCCCC(=O)*; γGlu = O=C(O)[C@H](CCC(=O)[*:2])N[*:1]; AEEA = NCCOCCOCC(=O)O
How the values were obtained:
GLP1R = molecular target: T1, GLP1R (Homo sapiens, UniProt P43220); experiment: In vitro activity determination in HEK293/CRE-Luc/GLP1R cells (luciferase reporter); assay type: cell-based
T1 construct: expressed in transfected cells; host or cells: HEK293
T1 sequence (P43220 24-463, species assumed): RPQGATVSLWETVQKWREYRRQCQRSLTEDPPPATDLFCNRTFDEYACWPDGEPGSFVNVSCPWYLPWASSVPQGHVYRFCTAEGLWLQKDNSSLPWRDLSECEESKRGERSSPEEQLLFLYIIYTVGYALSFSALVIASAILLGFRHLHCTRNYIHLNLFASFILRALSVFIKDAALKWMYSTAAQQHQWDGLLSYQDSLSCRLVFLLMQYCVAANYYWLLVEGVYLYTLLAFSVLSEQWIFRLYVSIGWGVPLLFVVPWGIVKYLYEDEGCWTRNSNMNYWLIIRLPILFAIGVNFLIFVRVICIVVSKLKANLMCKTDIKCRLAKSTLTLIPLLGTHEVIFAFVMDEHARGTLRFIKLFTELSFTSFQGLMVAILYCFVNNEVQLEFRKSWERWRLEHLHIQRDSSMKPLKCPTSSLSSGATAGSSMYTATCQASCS
Protocol: Based on the fact that GLP-1 may bind to the receptor on the cell membrane, the HEK293/CRE-Luc/GLPIR cell line is constructed, the CAMP response elements (CRE) are activated through a series of signal transduction, the expression of downstream luciferase is initiated, and the amount of its expression is positively correlated with the biological activity of GLP-1. After adding the luciferase substrate, the chemiluminescence assay is performed to determine the luminous intensity, thereby determining the biological activity of GLP-1.
96-well cell culture plate (white and opaque), DMEM medium (GIBCO), 0.05% TRYPSIN-EDTA (GIBCO), fetal bovine serum (GIBCO), G418, hygromycin B, Bright-Glo™ Luciferase Assay System Kit (Promega), and HEK293/CRE-luc/GLP1R cells.
(1) Cell preparation: the cells are cultured until they grow vigorously and reach a sufficient quantity, discarding the culture medium in the culture bottle, adding 3 ml of Versene solution and shaking once; then adding 2 ml of 0.05% TRYPSIN-EDTA digestion solution, covering the bottle and standing for 1 minute, and then adding 6 ml of the assay medium to quench the digestion; after centrifugation at 1000 r/min for 3 min, the supernatant is discarded, and the cells are resuspended in 5 ml of assay medium and counted on a hemacytometer. The cell density is adjusted to an appropriate range for later use by using DMEM assay medium.
(2) Sample preparation: the derivatives of different GLP-1 analogues in Table 1 are diluted to 20 ng/ml with the assay medium, then gradient diluted into 8 concentrations in 96-well plates, and using the assay medium instead of the sample as the cell blank control. 2 duplicate wells are made for each dilution concentration.
(3) Culturing with addition of the samples: the prepared solutions of the control and test samples are transferred to a 96-well cell culture plate (white board), adding 50 μl of the solution to each well; then adding the prepared cell suspension, adding 50 μl of the suspension to each well; and then incubating for a certain period of time under the conditions of 37° C. and 5% CO2.
(4) Chemiluminescence assay: substrate is added, then taking out the 96-well cell culture plate, adding 100 μl of Bright Glo reagent to each well, and leaving in the dark for 3 min.
(5) Reading: determination is performed with a chemiluminescence microplate reader SpectraMax L, then reading the plate within 30 min, and recording the determined results.

db/db mice = experiment: Fasting blood glucose after single injection in type II diabetic db/db mice (FIG. 1); assay type: in vivo; conditions: 0.05 mg/kg s.c. single
Protocol: The dosage is 0.05 mg/kg for each, and the administration time is set as 0 h. Fasting blood glucose is measured after fasting for 6-8 h every day, and the fasting blood glucose after administration is measured every day until the fasting blood glucose value of each animal of the test group recovers to the value measured before administration. The blood glucose value measured before administration is called the basal blood glucose value, and is set as 0. Change of the fasting blood glucose (Δ: delta)=Blood glucose value after administration-Basal blood glucose value before administration.

Structure (SMILES)	in vitro activities (comparison in words) (GLP1R)	glucose-lowing effect compared with Semaglutide (FIG. 1) (db/db mice; day 4 and day 5)	glucose-lowing effect compared with Semaglutide (FIG. 1) (db/db mice; day 2)
CC[C@H](C)[C@H](NC(=O)[C@H](Cc1ccccc1)NC(=O)[C@H](CCC(=O)O)NC(=O)[C@H](CCCNC(=N)N)NC(=O)[C@H](C)NC(=O)[C@H](C)NC(=O)[C@H](CCCCNC(=O)COCCOCCNC(=O)COCCOCCNC(=O)CC[C@H](NC(=O)CCCCCCCCCCCCCCCCC(=O)O)C(=O)O)NC(=O)[C@H](CCC(=O)O)NC(=O)[C@H](CCC(=O)O)NC(=O)[C@H](CC(C)C)NC(=O)[C@H](Cc1ccc(O)cc1)NC(=O)[C@H](CO)NC(=O)[C@H](CO)NC(=O)[C@@H](NC(=O)[C@H](CC(=O)O)NC(=O)[C@H](CO)NC(=O)[C@@H](NC(=O)[C@H](Cc1ccccc1)NC(=O)[C@@H](NC(=O)CNC(=O)[C@H](CCC(=O)O)NC(=O)CNC(=O)[C@@H](N)Cc1c[nH]cn1)[C@@H](C)O)[C@@H](C)O)C(C)C)C(=O)N[C@@H](C)C(=O)N[C@@H](Cc1c[nH]c2ccccc12)C(=O)N[C@@H](CC(C)C)C(=O)N[C@H](C(=O)N[C@@H](CCCNC(=N)N)C(=O)NCC(=O)N[C@@H](CCCNC(=N)N)C(=O)NCC(=O)O)C(C)C [M11, N-ε^23-[2-(2-[2-(2-[2-(2-[4-(17-carboxyheptadecanoylamino)-4(s)-carboxybutyrylamino]ethoxy)ethoxy]acetylamino)ethoxy]ethoxy)acetyl](Gly^8Glu^22Lys^23Arg^26,34-GLP-1(7-37)) peptide] (H-HGEGTFTSDVSSYLEEK([AEEA-AEEA-γGlu-C18 diacid])AAREFIAWLVRGRG-OH; N-terminus and C-terminus assumed)	comparable		lower than that of Semaglutide
CC[C@H](C)[C@H](NC(=O)[C@H](Cc1ccccc1)NC(=O)[C@H](CCC(=O)O)NC(=O)[C@H](CCCNC(=N)N)NC(=O)[C@H](C)NC(=O)[C@H](C)NC(=O)[C@H](CCC(N)=O)NC(=O)[C@H](CCC(=O)O)NC(=O)[C@H](CCC(=O)O)NC(=O)[C@H](CC(C)C)NC(=O)[C@H](Cc1ccc(O)cc1)NC(=O)[C@H](CO)NC(=O)[C@H](CO)NC(=O)[C@@H](NC(=O)[C@H](CC(=O)O)NC(=O)[C@H](CO)NC(=O)[C@@H](NC(=O)[C@H](Cc1ccccc1)NC(=O)[C@@H](NC(=O)CNC(=O)[C@H](CCC(=O)O)NC(=O)[C@@H](NC(=O)[C@@H](N)Cc1c[nH]cn1)[C@@H](C)O)[C@@H](C)O)[C@@H](C)O)C(C)C)C(=O)N[C@@H](CCCCNC(=O)COCCOCCNC(=O)COCCOCCNC(=O)CC[C@H](NC(=O)CCCCCCCCCCCCCCCCC(=O)O)C(=O)O)C(=O)N[C@@H](Cc1c[nH]c2ccccc12)C(=O)N[C@@H](CC(C)C)C(=O)N[C@H](C(=O)N[C@@H](CCCNC(=N)N)C(=O)NCC(=O)N[C@@H](CCCNC(=N)N)C(=O)NCC(=O)O)C(C)C [M13] (H-HTEGTFTSDVSSYLEEQAAREFIK([AEEA-AEEA-γGlu-C18 diacid])WLVRGRG-OH; N-terminus and C-terminus assumed)		better than that of Semaglutide	
CC[C@H](C)[C@H](NC(=O)[C@H](Cc1ccccc1)NC(=O)[C@H](CCC(=O)O)NC(=O)[C@H](CCCNC(=N)N)NC(=O)[C@H](C)NC(=O)[C@H](C)NC(=O)[C@H](CCC(N)=O)NC(=O)[C@H](CCC(=O)O)NC(=O)[C@H](CCC(=O)O)NC(=O)[C@H](CC(C)C)NC(=O)[C@H](Cc1ccc(O)cc1)NC(=O)[C@H](CO)NC(=O)[C@H](CO)NC(=O)[C@@H](NC(=O)[C@H](CC(=O)O)NC(=O)[C@H](CO)NC(=O)[C@@H](NC(=O)[C@H](Cc1ccccc1)NC(=O)[C@@H](NC(=O)CNC(=O)[C@H](CCC(=O)O)NC(=O)CNC(=O)[C@@H](N)Cc1c[nH]cn1)[C@@H](C)O)[C@@H](C)O)C(C)C)C(=O)N[C@@H](CCCCNC(=O)COCCOCCNC(=O)COCCOCCNC(=O)CC[C@H](NC(=O)CCCCCCCCCCCCCCCCC(=O)O)C(=O)O)C(=O)N[C@@H](Cc1c[nH]c2ccccc12)C(=O)N[C@@H](CC(C)C)C(=O)N[C@H](C(=O)N[C@@H](CCCNC(=N)N)C(=O)NCC(=O)N[C@@H](CCCNC(=N)N)C(=O)NCC(=O)O)C(C)C [M16, N-ε^30-[2-(2-[2-(2-[2-(2-[4-(17-carboxyheptadecanoylamino)-4(s)-carboxybutyrylamino]ethoxy)ethoxy]acetylamino)ethoxy]ethoxy)acetyl](Gly^8Glu^22Lys^30Arg^26,34-GLP-1(7-37)) peptide] (H-HGEGTFTSDVSSYLEEQAAREFIK([AEEA-AEEA-γGlu-C18 diacid])WLVRGRG-OH; N-terminus and C-terminus assumed)	comparable		lower than that of Semaglutide

More lines, main results first:

in vitro activities (comparison in words) (GLP1R)	Structure (SMILES)	glucose-lowing effect compared with Semaglutide (FIG. 1) (db/db mice; day 4 and day 5)	glucose-lowing effect compared with Semaglutide (FIG. 1) (db/db mice; day 2)
comparable	CC[C@H](C)[C@H](NC(=O)[C@H](Cc1ccccc1)NC(=O)[C@H](CCC(=O)O)NC(=O)[C@H](CCCNC(=N)N)NC(=O)[C@H](C)NC(=O)[C@H](C)NC(=O)[C@H](CCCCNC(=O)COCCOCCNC(=O)COCCOCCNC(=O)CC[C@H](NC(=O)CCCCCCCCCCCCCCCCC(=O)O)C(=O)O)NC(=O)[C@H](CCC(=O)O)NC(=O)[C@H](CCC(=O)O)NC(=O)[C@H](CC(C)C)NC(=O)[C@H](Cc1ccc(O)cc1)NC(=O)[C@H](CO)NC(=O)[C@H](CO)NC(=O)[C@@H](NC(=O)[C@H](CC(=O)O)NC(=O)[C@H](CO)NC(=O)[C@@H](NC(=O)[C@H](Cc1ccccc1)NC(=O)[C@@H](NC(=O)CNC(=O)[C@H](CCC(=O)O)NC(=O)[C@@H](NC(=O)[C@@H](N)Cc1c[nH]cn1)[C@@H](C)CC)[C@@H](C)O)[C@@H](C)O)C(C)C)C(=O)N[C@@H](C)C(=O)N[C@@H](Cc1c[nH]c2ccccc12)C(=O)N[C@@H](CC(C)C)C(=O)N[C@H](C(=O)N[C@@H](CCCNC(=N)N)C(=O)NCC(=O)N[C@@H](CCCNC(=N)N)C(=O)NCC(=O)O)C(C)C [M9, N-ε^23-[2-(2-[2-(2-[2-(2-[4-(17-carboxyheptadecanoylamino)-4(s)-carboxybutyrylamino]ethoxy)ethoxy]acetylamino)ethoxy]ethoxy)acetyl](Ile^8Glu^22Lys^23Arg^26,34-GLP-1 (7-37)) peptide] (H-HIEGTFTSDVSSYLEEK([AEEA-AEEA-γGlu-C18 diacid])AAREFIAWLVRGRG-OH; N-terminus and C-terminus assumed)	better than that of Semaglutide	
comparable	CC[C@H](C)[C@H](NC(=O)[C@H](Cc1ccccc1)NC(=O)[C@H](CCC(=O)O)NC(=O)[C@H](CCCNC(=N)N)NC(=O)[C@H](C)NC(=O)[C@H](C)NC(=O)[C@H](CCC(N)=O)NC(=O)[C@H](CCC(=O)O)NC(=O)[C@H](CCC(=O)O)NC(=O)[C@H](CC(C)C)NC(=O)[C@H](Cc1ccc(O)cc1)NC(=O)[C@H](CO)NC(=O)[C@H](CO)NC(=O)[C@@H](NC(=O)[C@H](CC(=O)O)NC(=O)[C@H](CO)NC(=O)[C@@H](NC(=O)[C@H](Cc1ccccc1)NC(=O)[C@@H](NC(=O)CNC(=O)[C@H](CCC(=O)O)NC(=O)[C@@H](NC(=O)[C@@H](N)Cc1c[nH]cn1)[C@@H](C)CC)[C@@H](C)O)[C@@H](C)O)C(C)C)C(=O)N[C@@H](CCCCNC(=O)COCCOCCNC(=O)COCCOCCNC(=O)CC[C@H](NC(=O)CCCCCCCCCCCCCCCCC(=O)O)C(=O)O)C(=O)N[C@@H](Cc1c[nH]c2ccccc12)C(=O)N[C@@H](CC(C)C)C(=O)N[C@H](C(=O)N[C@@H](CCCNC(=N)N)C(=O)NCC(=O)N[C@@H](CCCNC(=N)N)C(=O)NCC(=O)O)C(C)C [M14, N-ε^30-[2-(2-[2-(2-[2-(2-[4-(17-carboxyheptadecanoylamino)-4(s)-carboxybutyrylamino]ethoxy)ethoxy]acetylamino)ethoxy]ethoxy)acetyl](Ile^8Glu^22Lys^30Arg^26,34-GLP-1(7-37)) peptide] (H-HIEGTFTSDVSSYLEEQAAREFIK([AEEA-AEEA-γGlu-C18 diacid])WLVRGRG-OH; N-terminus and C-terminus assumed)	better than that of Semaglutide	

Reference: patent US12508300B2, “Acylated GLP-1 derivative” (Sciwind Biosciences Co., Ltd., priority 2019, dated 2025)
